molecular target: T1, hFXR (Homo sapiens, UniProt Q96RI1); test: In Vitro FXR Assay (TK): TK-ECRE-luc reporter in transfected CV-1 cells; assay type: cell-based; conditions: CV-1 cells transfected with hFXR, hRXR, pCMX-YFP, 18 hrs incubation, luminescence
T1 construct: expressed in transfected cells; host or cells: CV-1 cells
T1 sequence (Q96RI1 1-486): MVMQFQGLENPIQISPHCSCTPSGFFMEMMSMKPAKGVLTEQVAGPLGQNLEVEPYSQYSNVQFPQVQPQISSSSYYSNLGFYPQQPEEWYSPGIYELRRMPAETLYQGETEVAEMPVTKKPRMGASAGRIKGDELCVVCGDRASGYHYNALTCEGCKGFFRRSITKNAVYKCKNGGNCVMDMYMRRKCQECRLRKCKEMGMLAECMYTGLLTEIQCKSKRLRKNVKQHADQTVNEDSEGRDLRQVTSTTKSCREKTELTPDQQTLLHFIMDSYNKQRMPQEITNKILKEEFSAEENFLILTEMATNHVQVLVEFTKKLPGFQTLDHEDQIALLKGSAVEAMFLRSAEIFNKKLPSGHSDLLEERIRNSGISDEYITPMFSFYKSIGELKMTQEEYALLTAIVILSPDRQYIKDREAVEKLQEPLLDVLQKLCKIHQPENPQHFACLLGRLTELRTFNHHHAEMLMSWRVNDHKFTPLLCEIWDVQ
T1 sequence (P19793 1-462 partner): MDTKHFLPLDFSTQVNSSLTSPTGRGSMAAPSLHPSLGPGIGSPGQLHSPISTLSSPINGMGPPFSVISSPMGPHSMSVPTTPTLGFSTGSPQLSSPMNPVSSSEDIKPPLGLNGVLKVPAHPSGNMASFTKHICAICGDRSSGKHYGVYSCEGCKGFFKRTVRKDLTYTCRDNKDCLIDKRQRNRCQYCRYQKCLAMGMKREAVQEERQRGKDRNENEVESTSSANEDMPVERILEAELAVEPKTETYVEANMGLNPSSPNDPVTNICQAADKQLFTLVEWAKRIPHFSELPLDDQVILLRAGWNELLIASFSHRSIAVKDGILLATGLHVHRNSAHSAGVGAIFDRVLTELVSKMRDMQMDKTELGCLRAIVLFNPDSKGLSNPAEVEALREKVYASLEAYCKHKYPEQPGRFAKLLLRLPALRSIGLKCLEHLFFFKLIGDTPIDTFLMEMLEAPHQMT
Summary of the method: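 Luciferase read-out from lysed CV-1 cells carrying transfected hFXR, hRXR, TK-ECRE-luc and pCMX-YFP. Test compounds, DMSO serial dilutions, were incubated with the cells for 18 h before lysis. Cells grew in charcoal-stripped serum medium.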

SMILES	EC50
COc1ccc(C23CCC(CN(c4cc(-c5coc(C(C)(C)C)n5)ccn4)C(=O)[C@H]4CC[C@H](OC(=O)NC5CCOCC5)CC4)(CC2)CC3)cc1C [Compound 3.11, 4-((4-(2-(tert-Butyl)oxazol-4-yl)pyridin-2-yl)((4-(4-methoxy-3-methylphenyl)bicyclo[2.2.2]octan-1-yl)methyl)carbamoyl) cyclohexyl (tetrahydro-2H-pyran-4-yl)trans-carbamate]	≤ 10 nM
COc1ccc(C23CCC(CN(c4cncc(-c5cnn(C(C)(C)C)c5)n4)C(=O)[C@H]4CC[C@H](OC(=O)N5CC(O)C5)CC4)(CC2)CC3)cc1C [Compound 3.12, 4-((6-(1-(tert-Butyl)-1H-pyrazol-4-yl)pyrazin-2-yl)((4-(4-methoxy-3-methylphenyl)bicyclo[2.2.2]octan-1-yl)methyl)carbamoyl) (trans-cyclohexyl) 3-hydroxyazetidine-1-carboxylate]	10 to 1000 nM
COc1c(C)cc(C23CCC(CN(c4cncc(-c5cnn(C(C)(C)C)c5)n4)C(=O)[C@H]4CC[C@H](OC(=O)N5CC(O)C5)CC4)(CC2)CC3)cc1C [Compound 3.13, 4-((6-(1-(tert-Butyl)-1H-pyrazol-4-yl)pyrazin-2-yl)((4-(4-methoxy-3,5-dimethylphenyl)bicyclo[2.2.2]octan-1-yl)methyl)carbamoyl) (trans-cyclohexyl) 3-hydroxyazetidine-1-carboxylate]	10 to 1000 nM
COc1ccc(C23CCC(CN(c4nccc(-c5cnn(C(C)(C)C)c5)n4)C(=O)[C@H]4CC[C@H](OC(=O)N5CC(O)C5)CC4)(CC2)CC3)cc1C [Compound 3.14, 4-((4-(1-(tert-Butyl)-1H-pyrazol-4-yl)pyrimidin-2-yl)((4-(4-methoxy-3-methylphenyl)bicyclo[2.2.2]octan-1-yl)methyl)carbamoyl) (trans-cyclohexyl) 3-hydroxyazetidine-1-carboxylate]	10 to 1000 nM
COc1c(C)cc(C23CCC(CN(c4nccc(-c5cnn(C(C)(C)C)c5)n4)C(=O)[C@H]4CC[C@H](OC(=O)N5CC(O)C5)CC4)(CC2)CC3)cc1C [Compound 3.15, 4-((4-(1-(tert-Butyl)-1H-pyrazol-4-yl)pyrimidin-2-yl)((4-(4-methoxy-3,5-dimethylphenyl)bicyclo[2.2.2]octan-1-yl)methyl)carbamoyl) (trans-cyclohexyl) 3-hydroxyazetidine-1-carboxylate]	10 to 1000 nM
CCC(C)(C)n1cc(-c2ccnc(N(CC34CCC(c5ccc(OC)c(C)c5)(CC3)CC4)C(=O)[C@H]3CC[C@H](OC(=O)N4CC(O)C4)CC3)c2)cn1 [Compound 4, 4-(((4-(4-Methoxy-3-methylphenyl)bicyclo[2.2.2]octan-1-yl)methyl)(4-(1-(tert-pentyl)-1H-pyrazol-4-yl)pyridin-2-yl)carbamoyl) cyclohexyl trans-3-hydroxyazetidine-1-carboxylate]	≤ 10 nM

The next lines start with the values.

EC50	SMILES
≤ 10 nM	CCC(C)(C)n1cc(-c2ccnc(N(CC34CCC(c5ccc(OC)c(C)c5)(CC3)CC4)C(=O)[C@H]3CC[C@H](OC(=O)N4CC(C)(O)C4)CC3)c2)cn1 [Compound 4.01, 4-(((4-(4-Methoxy-3-methylphenyl)bicyclo[2.2.2]octan-1-yl)methyl)(4-(1-(tert-pentyl)-1H-pyrazol-4-yl)pyridin-2-yl)carbamoyl) cyclohexyl trans-3-hydroxy-3-methylazetidine-1-carboxylate]
≤ 10 nM	CCC(C)(C)n1cc(-c2ccnc(N(CC34CCC(c5ccc(OC)c(C)c5)(CC3)CC4)C(=O)[C@H]3CC[C@H](OC(=O)N4CCC(O)CC4)CC3)c2)cn1 [Compound 4.02, 4-(((4-(4-Methoxy-3-methylphenyl)bicyclo[2.2.2]octan-1-yl)methyl)(4-(1-(tert-pentyl)-1H-pyrazol-4-yl)pyridin-2-yl)carbamoyl) cyclohexyl trans-4-hydroxypiperidine-1-carboxylate]
